According to US11013690B2, “Esterification/saponification-based method for liposomal encapsulation of hydrophilic glucuronides” (priority 2016, dated 2021):

Legend:
[1] = Octanol-to-water partitioning assay; format: physicochemical; conditions: 1-octanol / citric acid pH 5, room temperature
Experimental: FIG. 4 illustrates the octanol to water distribution of glucuronides and glucuronide-mE. Glucuronides and glucuronide-mE were incubated overnight in immiscible aqueous and organic phases (citric acid pH 5 and 1-octanol) under gentle shaking at room temperature. Samples from each phase were analyzed to characterize the distribution of the compounds. n=3-5
FIG. 5 illustrates the Log P of glucuronides and glucuronide-mE compounds in each phase of 1-octanol and citric acid pH 5 following the formula: log Poctanol/water=log ([solute]octanol/[solute]water). n=3-5. Error bars, SD
9-aminocamptothecin glucuronide (9AC-G), 5,6-dihydro-4H-benzo[de]quinoline-camptothecin-β-D-glucuronide (BQC-G) and 4-methylumbelliferyl-β-D-glucuronide (4MU-G) can be incubated in methanol in the presence of a strong acid (sulfuric acid) as a catalyzer (FIG. 2).
Distribution of the different compounds were measured by dilution in a 1:1 volume of octanol and 100 mM citric acid buffer at pH 5 (FIG. 4). The solutions were gently stirred for 24 hours at room temperature, spun down at 2,500×g and glucuronides or glucuronide-mE in each phase was quantified by HPLC and the partition coefficients were calculated as log Poctanol/water=log ([solute]octanol/[solute]water) ([…]).

MDA-MB-468 tumors = test: In-vivo anti-tumor activity, MDA-MB-468 subcutaneous tumors; set-up: species or system NOD/SCID mice; conditions: i.v. weekly x4, free 9AC 2 mg/kg, free 9AC-G 10 mg/kg; for mice survival: 9AC-G liposomes 10 mg/kg
From the text: FIG. 41 illustrates the in-vivo anti-tumor activity of liposomal 9AC-G. NOD/SCID mice were inoculated subcutaneously with 10^7 MDA-MB-468 cells. When tumors reached 75 to 100 mm^3 the treatment started at one injection per week for a total of 4 treatments. Figure represents the tumor volume evolution. n=7, Error bars: SD. Differences in tumor sizes between groups were examined for statistical significance using one-way ANOVA followed by Dunnettt's multiple comparisons. Stars indicate significance; n.s=non-significant and p<0.0001 (***)
FIG. 42 illustrates the mice survival after treatment with 9AC, 9AC-G or 9AC-G liposomes. n=7, Error bars, SD
FIG. 44 illustrates the tumor growth of MDA-MB-468 human breast cancer cells (10^7 cells in 100 μL PBS) injected subcutaneously in twelve to sixteen-week old female NOD/SCID immunodeficient mice. When tumors reached sizes from 75 mm^3 to 100 mm^3, groups of 7 mice were treated at weekly intervals for four times with intravenous injections of 9AC-G (10 mg/kg) or doxorubicin liposomes (Doxisome®, 1 mg/kg). n=7, Error bars, SD. Differences in tumor sizes between groups were examined for statistical significance using one-way ANOVA followed by Dunnettt's multiple comparisons. Stars indicate significance; p<0.001 (**) and p<0.0001 (***)
Next, in an in-vive model of breast cancer in NOD/SCID mice, 10^7 MDA-MD468 cells were inoculated subcutaneously per mouse. The treatment was started when the tumors reached an average size of 75 to 100 mm^3. Mice were intravenously injected with 9AC-G liposomes at 10 mg/kg, free parental 9AC (2 mg/kg), or free 9AC-G (10 mg/kg). […] Appreciably, low toxicity was observed and the tumors were undetectable when treated with 9AC-G liposomes after 4 treatments for 6 over 7 mice, as shown in FIG. 41. […] We observed that the amount of activated parental drug 9AC was over 30 folds higher in the tumor than in the blood 24 hours after injection of 9AC-G liposomes (FIG. 43). This phenomenon is likely due to the enhanced permeability and retention effect (EPR) by which nanoparticles accumulate and are retained in tumor through leaky blood tumor vasculature.

[2] = Pharmacokinetics of free vs liposomal 9AC-G in mice; format: in vivo, NOD/SCID mice; conditions: 25 mg/kg intravenously, 9AC-G in serum by HPLC
Experimental: FIG. 39 illustrates the pharmacokinetics in mice of free 9AC-G compared to liposomal 9AC-G. A dose of 25 mg/kg of either free 9AC-G or liposomal 9AC-G was injected intravenously by the tail of NOD/SCID mice. Blood samples were collected at different times and the concentration of 9AC-G was determined by HPLC. n=3, Error bars, SD.
This example relates to a test of whether the liposomal formulation of 9AC-G could display prolonged pharmacokinetics when compared to free 9AC-G. Free and liposomal 9AC-G were delivered intravenously at 25 mg/kg to 12 to 16 weeks old female mice. The total serum concentrations of 9AC-G were monitored by collecting blood samples in which the plasma was isolated from the red blood cells by centrifugation. The serum proteins were precipitated in acetonitrile:methanol:0.2 M trichloroacetic acid (2:2:1, vol:vol mixture). Samples were centrifuged to eliminate precipitated proteins and diluted in buffer containing 1% triton X-100 to lyse the liposomes and analyze 9AC-G quantities by HPLC.

[3] = tested on: HCC36 human hepatocellular carcinoma cells; test: Effect of human serum albumin on toxicity to HCC36 cells; format: cell-based; conditions: HCC36, human serum albumin 40 mg/mL, 24 hours, 3H-thymidine incorporation
Experimental: FIG. 35 illustrates the neutralizing effect of human serum albumin on free 9AC-G. Human hepatocellular carcinoma cells (HCC36) were exposed to free 9AC-G with or without human serum albumin (40 mg/mL) for 24 hours. Cell proliferation was observed by ^3H-thymidine incorporation assay. Human serum albumin inhibits the potency of free 9AC-G that is not loaded into liposomes. n=3, Error bars, SD.
FIG. 36 illustrates the inability of human serum albumin to neutralize 9AC-G after liposomal loading. Human hepatocellular carcinoma cells (HCC36) were exposed to liposomal 9AC-G with or without human serum albumin (40 mg/mL) for 24 hours. Cell proliferation was observed by ^3H-thymidine incorporation assay.
Anticancer activity of liposomes loaded with glucuronide-mE to encapsulate glucuronide can be assessed in-vitro or in-vivo. In an in-vitro assay, cancer cell lines can be seeded in wells or plates and various concentrations of liposomal glucuronide can be applied to the cells for a period of time, such as 24 hours, and cell killing can be assayed. Tritiated thymidine can be used to assay cell proliferation. […] Liposomal doxorubicin and liposomal 9AC-G toxicities were assessed with 3 human colon cancer cells (LS174T, HT29, and HCT16), 3 human lung cancer cells (CL1-5, NCI-H2170, and SK-MES-1) and 1 human breast cancer cells (MDA-MB-468). […]

human beta-glucuronidase = target: T1, human beta-glucuronidase (Homo sapiens, UniProt P08236); test: Regeneration of parental drug by beta-glucuronidase at pH 4.5; format: biochemical; conditions: pH 4.5 to mimic lysosomes
T1 sequence (P08236 23-651): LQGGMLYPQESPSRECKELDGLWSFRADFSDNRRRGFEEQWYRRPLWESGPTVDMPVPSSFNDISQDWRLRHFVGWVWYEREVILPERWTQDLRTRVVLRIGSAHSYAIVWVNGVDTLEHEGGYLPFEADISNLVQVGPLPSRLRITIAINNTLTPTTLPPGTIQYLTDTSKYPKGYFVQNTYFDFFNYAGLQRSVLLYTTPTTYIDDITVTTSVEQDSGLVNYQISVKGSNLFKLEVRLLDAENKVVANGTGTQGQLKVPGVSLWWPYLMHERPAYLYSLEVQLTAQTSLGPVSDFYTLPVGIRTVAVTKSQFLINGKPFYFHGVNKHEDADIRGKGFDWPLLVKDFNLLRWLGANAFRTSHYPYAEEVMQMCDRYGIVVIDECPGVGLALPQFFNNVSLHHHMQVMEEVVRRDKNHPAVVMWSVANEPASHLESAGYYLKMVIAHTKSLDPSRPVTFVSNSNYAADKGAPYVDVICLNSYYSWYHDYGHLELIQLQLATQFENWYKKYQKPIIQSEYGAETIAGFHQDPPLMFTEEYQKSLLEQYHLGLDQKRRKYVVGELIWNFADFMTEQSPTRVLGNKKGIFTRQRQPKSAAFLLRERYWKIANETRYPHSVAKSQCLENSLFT
Experimental: FIG. 28 illustrates the reversibility of the conjugation of the glucuronide residue to a parental compound. Here, 9AC was analyzed by HPLC before (1.) and after glucuronide conjugation (2.). […] 9AC-G incubated with human enzyme beta-glucuronidase at pH 4.5 to mimic the lysosomal conditions, could regenerate the original parental drug 9AC (5.). (RFU=relative fluorescent units)
In real conditions, it is extrapolated that liposomal glucuronides can be uptake by cells and that the liposomes can release the glucuronide inside lysosomes after degradation as illustrated in FIG. 29. Illustrations of compound regeneration are provided using 2 examples: 9AC-G (linked by self-immolative chemical linker that is removed upon enzyme hydrolysis, FIG. 30) and fluorescein (directly linked to glucuronide residues, FIG. 31). Effective amounts of 9AC were found in the medium of HCC36 and MDA-MB468 human cancer cells after addition of 9AC-G liposomes. On the other hand, when no cells were present, no 9AC was found, meaning that the regeneration of 9AC was dependent on the cells (FIG. 32). […] To further illustrate the parental compound regeneration ability, we incubated HCC36 cells engineered with LDL-R/anti PEG receptors with liposomal fluorescein-di-G (non-fluorescent). At early time, the liposomes (red) were taken up by the cells and started to colocalize with the lysosomes (magenta). […]

[4] = pH stability of 9AC-GmE (HPLC); format: physicochemical
Experimental: FIG. 6 illustrates the stability of 9-aminocamptothecin glucuronide methylester (9AC-GmE) at acidic pH. 9AC-GmE stability was monitored over time at 75° C., at pH 5. Quantification was done by HPLC at excitation and emission of 370 and 460 nm, respectively. (Abbreviations: 9AC, 9-aminocamptothecin; 9AC-G, 9-aminocamptothecin glucuronide; 9AC-GmE, methylester form of 9AC-G). n=3. Error bars, SD.
FIG. 7 illustrates the conversion of 9-aminocamptothecin glucuronide methylester (9AC-GmE) to 9-aminocamptothecin glucuronide (9AC-G) at basic pH. 9AC-GmE conversion to 9AC-G was monitored over time at 75° C., at pH 8.5. Quantification was done by HPLC at excitation and emission of 370 and 460 nm, respectively. n=3. Error bars, SD.
The behavior of 9AC-GmE was investigated at different pH and temperatures.

| Compound | partition versus corresponding glucuronide [1] | mice survival (MDA-MB-468 tumors) | effect on tumor growth (MDA-MB-468 tumors) | further results |
| --- | --- | --- | --- | --- |
| COC(=O)C1OC(Oc2ccc3c(C)cc(=O)oc3c2)C(O)C(O)C1O (stereo not drawn) [4MU-GmE] | increased partition into an organic phase |  |  |  |
| CC[C@@]1(O)C(=O)OCc2c1cc1n(c2=O)Cc2cc3c(N)cccc3nc2-1 [9AC, 9-aminocamptothecin, reference compound] |  | not | little effect on the tumor growth |  |
| 9-aminocamptothecin glucuronide [9AC-G] |  | not | little effect on the tumor growth | initial half-life [2]: 9.3 min; terminal half-life [2]: 38.6 min; effect of human serum albumin on toxicity [3]: toxicity is suppressed; conversion to parental drug by beta-glucuronidase (human beta-glucuronidase): completely converted to 9AC |
| 9-aminocamptothecin glucuronide methylester [9AC-GmE] | increased partition into an organic phase |  |  | stability of methylester group at basic pH (saponification to 9AC-G) ([4]; basic pH (8.5), 75° C.): easily is hydrolyzed; stability at acidic pH ([4]; pH 5, 75° C.): very stable |
